Data from US9932637B2, “Genetic polymorphisms associated with cardiovascular disorders and drug response, methods of detection and uses thereof” (CELERA CORPORATION, priority 2003, dated 2018).

Test system: patients with prior myocardial infarction (CARE study)
Assay: CARE: association of SNPs with pravastatin treatment in cardiovascular events prevention (logistic regression, odds ratio pravastatin vs placebo by genotype; Table 8)
Format: in vivo, human
Details: for MI (Fatal/Nonfatal), n/total (%) / Nonfatal MI (Probable/Definite), n/total (%) / Nonfatal MI (def & prob), n/total (%) / Fatal/Nonfatal MI (def & prob), n/total (%) / Hosp. for Unstable Angina, n/total (%): MJD hCV16189421, All Patients; for MI (Fatal/Nonfatal), n/total (%) / Nonfatal MI (Probable/Definite), n/total (%) / Nonfatal MI (def & prob), n/total (%) / Fatal/Nonfatal MI (def & prob), n/total (%) / Hosp. for Unstable Angina, n/total (%) / Percutaneous Transluminal Coronary Angioplas, n/total (%) / Fatal/Nonfatal Cerebrovascular Disease, n/total (%): Prava arm; for Percutaneous Transluminal Coronary Angioplas, n/total (%): MMP27 hCV7492601, All Patients; for Total Coronary Heart Disease Events, n/total (%) / Fatal/Non-fatal Atherosclerotic CV Disease, n/total (%) / Hosp. for Cardiovascular Disease, n/total (%) / Total Cardiovascular Disease Events, n/total (%) / Prava vs. Placebo Odds Ratio, 0 Rare Alleles / Prava vs. Placebo Odds Ratio, 1 Rare Alleles / Prava vs. Placebo Odds Ratio, 2 Rare Alleles / Fatal Atherosclerotic Cardiovascular Disease, n/total (%) / Cardiovascular Mortality, n/total (%): All Patients; for Total Coronary Heart Disease Events, n/total (%) / Fatal/Non-fatal Atherosclerotic CV Disease, n/total (%) / Hosp. for Cardiovascular Disease, n/total (%) / Total Cardiovascular Disease Events, n/total (%) / Fatal Atherosclerotic Cardiovascular Disease, n/total (%) / Cardiovascular Mortality, n/total (%): Prava; for Fatal/Nonfatal Cerebrovascular Disease, n/total (%): NID2 hCV15876071, All Patients
Description: In order to identify genetic markers associated with acute coronary events (e.g. MI, stroke, unstable angina, congestive heart failure, etc.) or response to statin treatment for the prevention of coronary events, samples from the Cholesterol and Recurrent Events (CARE) study (a randomized multicentral double-blinded trial on secondary prevention of acute coronary events with pravastatin) (Sacks et al., 1991, Am. J. Cardiol. 68: 1436-1446) were genotyped. A well-documented myocardial infarction (MI) was one of the enrollment criteria for entry into the CARE study. Patients were enrolled in the CARE trial from 80 participating study centers. […] Patients were randomized to receive either 40 mg of pravastatin once daily or a matching placebo. The primary endpoint of the trial was death from coronary heart disease and the median duration of follow-up was 5.0 years (range, 4.0 to 6.2 years). […] Secondary endpoints of other related cardiovascular or metabolic disease events, and changes in clinical variables were also recorded in pravastatin-treated and placebo groups. All individuals included in the study had signed a written informed consent form and the study protocol was approved by the respective Institutional Review Boards (IRBs).
For genotyping SNPs in CARE patient samples, DNA was extracted from blood samples using conventional DNA extraction methods such as the QIA-amp kit from Qiagen. Genotypes were obtained on an ABI PRISM® 7900HT Sequence Detection PCR system (Applied Biosystems, Foster City, Calif.) by kinetic allele-specific PCR, similar to the method described by Germer et al. (Germer S., Holland M. J., Higuchi R. 2000, Genome Res. 10: 258-266).
Statistical analysis for association of SNPs with pravastatin treatment in cardiovascular events prevention (Table 8) was carried out using an overall logistic regression model that included an intercept, a parameter for the effect of a genotype containing two rare alleles versus a genotype containing no rare alleles, a parameter for the effect of a genotype containing one rare allele versus a genotype containing no rare alleles, a parameter for the effect of use of pravastatin versus the use of placebo, and parameters for the interaction effects between SNP genotypes and pravastatin use. The test of the overall model is a chi-square test with two degrees of freedom for analyses containing all three genotypes, and one degree of freedom for analyses containing two genotypes.
Effect sizes were estimated through odds ratios (pravastatin group versus placebo) for carriers of each genotype (groups of 0, 1, and 2 minor allele carriers). The effect was considered to be significant if p-value for testing whether any of the interactions between SNP genotypes and pravastatin use were <0.05. […] Odds ratios less than one indicate that the specific SNP allele has a protective effect and odds ratios greater than one indicate that the specific SNP allele has an adverse effect.

[1] = MTRR hCV7580070, 2 Rare Alleles, n/total 2/22
[2] = MTRR hCV7580070, 2 Rare Alleles, n/total 5/22
[3] = MTRR hCV7580070, Fatal/Non-fatal Atherosclerotic CV Disease
[4] = MTRR hCV7580070, Hosp. for Cardiovascular Disease
[5] = MTRR hCV7580070, Total Cardiovascular Disease Events
[6] = MTRR hCV7580070, Total Coronary Heart Disease Events
[7] = NPC1 hCV7490135, 1 Rare Allele, n/total 26/742
[8] = NPC1 hCV7490135, 2 Rare Alleles, n/total 3/324

CC[C@H](C)C(=O)O[C@H]1C[C@H](O)C=C2C=C[C@H](C)[C@H](CC[C@@H](O)C[C@@H](O)CC(=O)O)[C@H]21 [pravastatin]
MI (Fatal/Nonfatal), n/total (%) (0 Rare Alleles): (8.6%) | Nonfatal MI (Probable/Definite), n/total (%) (0 Rare Alleles): (8.0%) | Nonfatal MI (def & prob), n/total (%) (0 Rare Alleles): (7.5%) | Fatal/Nonfatal MI (def & prob), n/total (%) (1 Rare Allele): (11.9%) | Hosp. for Unstable Angina, n/total (%) (1 Rare Allele): (17.6%) | MI (Fatal/Nonfatal), n/total (%) (1 Rare Allele): (12.1%) | Nonfatal MI (Probable/Definite), n/total (%) (1 Rare Allele): (11.3%) | Nonfatal MI (def & prob), n/total (%) (1 Rare Allele): (11.2%) | Fatal/Nonfatal MI (def & prob), n/total (%) (2 Rare Alleles): (11.2%) | Hosp. for Unstable Angina, n/total (%) (2 Rare Alleles): (10.1%) | MI (Fatal/Nonfatal), n/total (%) (2 Rare Alleles): (11.2%) | Nonfatal MI (Probable/Definite), n/total (%) (2 Rare Alleles): (11.2%) | Nonfatal MI (def & prob), n/total (%) (2 Rare Alleles): (11.2%) | Percutaneous Transluminal Coronary Angioplas, n/total (%) (0 Rare Alleles): (9.7%) | Percutaneous Transluminal Coronary Angioplas, n/total (%) (1 Rare Allele): (9.1%) | Percutaneous Transluminal Coronary Angioplas, n/total (%) (2 Rare Alleles): (8.2%) | Total Coronary Heart Disease Events, n/total (%) (MTRR hCV7580070, 0 Rare Alleles, n/total 338/1201): (28.1%) | Fatal/Non-fatal Atherosclerotic CV Disease, n/total (%) (MTRR hCV7580070, 0 Rare Alleles, n/total 390/1201): (32.5%) | Hosp. for Cardiovascular Disease, n/total (%) (MTRR hCV7580070, 0 Rare Alleles, n/total 466/1201): (38.8%) | Total Cardiovascular Disease Events, n/total (%) (MTRR hCV7580070, 0 Rare Alleles, n/total 480/1201): (40.0%) | Total Coronary Heart Disease Events, n/total (%) (MTRR hCV7580070, 1 Rare Allele, n/total 98/284): (34.5%) | Fatal/Non-fatal Atherosclerotic CV Disease, n/total (%) (MTRR hCV7580070, 1 Rare Allele, n/total 110/284): (38.7%) | Hosp. for Cardiovascular Disease, n/total (%) (MTRR hCV7580070, 1 Rare Allele, n/total 135/284): (47.5%) | Total Cardiovascular Disease Events, n/total (%) (MTRR hCV7580070, 1 Rare Allele, n/total 137/284): (48.2%) | Fatal/Non-fatal Atherosclerotic CV Disease, n/total (%) [1]: (9.1%) | Total Coronary Heart Disease Events, n/total (%) [1]: (9.1%) | Hosp. for Cardiovascular Disease, n/total (%) [2]: (22.7%) | Total Cardiovascular Disease Events, n/total (%) [2]: (22.7%) | Prava vs. Placebo Odds Ratio, 0 Rare Alleles [3]: 0.74 | Prava vs. Placebo Odds Ratio, 1 Rare Alleles [3]: 0.95 | Prava vs. Placebo Odds Ratio, 2 Rare Alleles [3]: 0.09 | Prava vs. Placebo Odds Ratio, 0 Rare Alleles [4]: 0.71 | Prava vs. Placebo Odds Ratio, 1 Rare Alleles [4]: 1.04 | Prava vs. Placebo Odds Ratio, 2 Rare Alleles [4]: 0.22 | Prava vs. Placebo Odds Ratio, 0 Rare Alleles [5]: 0.71 | Prava vs. Placebo Odds Ratio, 1 Rare Alleles [5]: 1.01 | Prava vs. Placebo Odds Ratio, 2 Rare Alleles [5]: 0.22 | Prava vs. Placebo Odds Ratio, 0 Rare Alleles [6]: 0.73 | Prava vs. Placebo Odds Ratio, 1 Rare Alleles [6]: 1.00 | Prava vs. Placebo Odds Ratio, 2 Rare Alleles [6]: 0.12 | Fatal/Nonfatal Cerebrovascular Disease, n/total (%) (0 Rare Alleles): (5.7%) | Fatal/Nonfatal Cerebrovascular Disease, n/total (%) (1 Rare Allele): (4.1%) | Fatal/Nonfatal Cerebrovascular Disease, n/total (%) (2 Rare Alleles): (1.7%) | Fatal Atherosclerotic Cardiovascular Disease, n/total (%) (NPC1 hCV7490135, 0 Rare Alleles, n/total 25/437): (5.7%) | Cardiovascular Mortality, n/total (%) (NPC1 hCV7490135, 0 Rare Alleles, n/total 26/437): (5.9%) | Total Coronary Heart Disease Events, n/total (%) (NPC1 hCV7490135, 0 Rare Alleles, n/total 146/437): (33.4%) | Fatal/Non-fatal Atherosclerotic CV Disease, n/total (%) (NPC1 hCV7490135, 0 Rare Alleles, n/total 165/437): (37.8%) | Hosp. for Cardiovascular Disease, n/total (%) (NPC1 hCV7490135, 0 Rare Alleles, n/total 194/437): (44.4%) | Total Cardiovascular Disease Events, n/total (%) (NPC1 hCV7490135, 0 Rare Alleles, n/total 202/437): (46.2%) | Cardiovascular Mortality, n/total (%) [7]: (3.5%) | Fatal Atherosclerotic Cardiovascular Disease, n/total (%) [7]: (3.5%) | Total Coronary Heart Disease Events, n/total (%) (NPC1 hCV7490135, 1 Rare Allele, n/total 213/742): (28.7%) | Fatal/Non-fatal Atherosclerotic CV Disease, n/total (%) (NPC1 hCV7490135, 1 Rare Allele, n/total 246/742): (33.2%) | Hosp. for Cardiovascular Disease, n/total (%) (NPC1 hCV7490135, 1 Rare Allele, n/total 295/742): (39.8%) | Total Cardiovascular Disease Events, n/total (%) (NPC1 hCV7490135, 1 Rare Allele, n/total 303/742): (40.8%) | Cardiovascular Mortality, n/total (%) [8]: (0.9%) | Fatal Atherosclerotic Cardiovascular Disease, n/total (%) [8]: (0.9%) | Total Coronary Heart Disease Events, n/total (%) (NPC1 hCV7490135, 2 Rare Alleles, n/total 81/324): (25.0%)
